These results are taken from ChEMBL document CHEMBL3045264, “Synthesis and antimicrobial activity of 5-((3-aryl-1-phenyl-1H-pyrazol-4-yl)methylene)thiazolidine-2,4-diones” (2012).

The structures appear in SMILES notation. Values after ≈ are worked out from the molar mass of the structure shown. Active and inactive are the calls of the source. The rule behind the calls is not given here.

Test [1] relates to Staphylococcus aureus. The experiment in a line: Antibacterial activity against Staphylococcus aureus MTCC 96 at 4 mg/ml after 24 hr by agar well diffusion method. The following applies: MTCC 96, 24 h, read-out: DIZ. It is filed as functional. On the technique in general: A growth-free zone around the sample is the usual read-out of agar diffusion tests.
A further test has as its system Aspergillus flavus. The experiment in a line: Growth inhibition of Aspergillus flavus at 4 mg/ml after 7 days by poisoned food technique. It is filed as functional. Particulars: 168 h, read-out: GI.
Test [2] deals with Pseudomonas aeruginosa. The following applies: MTCC 741, 4 mg/ml.
Description: (§1) Antibacterial activity against Pseudomonas aeruginosa MTCC 741 at 4 mg/ml after 24 hr by agar well diffusion method
Test [3] has as its system Bacillus subtilis. Briefly: Antibacterial activity against Bacillus subtilis MTCC 121 at 4 mg/ml after 24 hr by agar well diffusion method. The format is functional. The following applies: MTCC 121, 24 h, read-out: DIZ.
Test [4] deals with Bacillus subtilis. The experiment in a line: Antibacterial activity against Bacillus subtilis MTCC 121 after 24 hr by macro dilution tube method. It is filed as functional. The following applies: MTCC 121, 24 h.
The next test concerns Aspergillus niger. The experiment in a line: Growth inhibition of Aspergillus niger at 4 mg/ml after 7 days by poisoned food technique. The format is functional. Particulars: 168 h, read-out: GI.
For a further test, the system named is Escherichia coli. Briefly: Antibacterial activity against Escherichia coli MTCC 1652 at 4 mg/ml after 24 hr by agar well diffusion method. The format is functional, organism-based.
The test system of test [5] is Staphylococcus aureus. The experiment in a line: Antibacterial activity against Staphylococcus aureus MTCC 96 after 24 hr by macro dilution tube method. It is filed as functional. Particulars: MTCC 96, 24 h.
The test system of test [6] is Pseudomonas aeruginosa. The experiment in a line: microbe, parasite or virus in culture. Particulars: MTCC 741, 24 h, read-out: DIZ.
Description: as §1

On to `O=C1NC(=O)/C(=C/c2cn(-c3ccccc3)nc2-c2ccc(Cl)cc2)S1`, for which the zone of inhibition at 4000 µg/mL in the test on Staphylococcus aureus [1] turned out to be 14.3 mm; in the test with Bacillus subtilis [3], 15 mm. Besides, the results for the inhibition of growth at 4000 µg/mL in the test with Aspergillus flavus and with Aspergillus niger were 60% and 65.5%, respectively. For the same molecule, the DIZ entry in the test with Pseudomonas aeruginosa [2] was “inactive”. Also, the MIC against Bacillus subtilis [4] and against Staphylococcus aureus [5] was 128 µg/mL (≈ 335 µM) each time. Besides, the “diameter of the inhibition zone (DIZ)” value in the test on Escherichia coli is “inactive”.
Turning to `O=C1NC(=O)/C(=C/c2cn(-c3ccccc3)nc2-c2ccc(F)cc2)S1`, the zone of inhibition at 4000 µg/mL in the test on Staphylococcus aureus [1] was determined as 20.6 mm; in the test with Bacillus subtilis [3], 21.6 mm. Moreover, the inhibition of growth at 4000 µg/mL in the test on Aspergillus flavus stood at 78.8%; in the test on Aspergillus niger it was 82.5%. The DIZ entry in the test with Pseudomonas aeruginosa [2] is “inactive”. Further, the MIC with Bacillus subtilis [4] and against Staphylococcus aureus [5] was 32 µg/mL (≈ 87.6 µM) each time. In addition, the “diameter of the inhibition zone (DIZ)” value with Escherichia coli is “inactive”.
For `O=C(O)c1cn(C2CC2)c2cc(N3CCNCC3)c(F)cc2c1=O` [CIPROFLOXACIN], the zone of inhibition at 4000 µg/mL came out at 26 mm with Staphylococcus aureus [1], 22 mm with Pseudomonas aeruginosa [6] and 24 mm in the test on Bacillus subtilis [3]. Besides, the MIC in the test on Bacillus subtilis [4] and in the test with Staphylococcus aureus [5] was 5 µg/mL (≈ 15.1 µM) each time.
For the molecule `O=C1NC(=O)/C(=C/c2cn(-c3ccccc3)nc2-c2ccc([N+](=O)[O-])cc2)S1`, the figures for the zone of inhibition at 4000 µg/mL in the test on Staphylococcus aureus [1] and in the test with Bacillus subtilis [3] were 23.6 mm and 21.3 mm, respectively. Also, the inhibition of growth at 4000 µg/mL in the test with Aspergillus flavus amounted to 63.3%; in the test with Aspergillus niger, 61.1%. In addition, the DIZ entry in the test with Pseudomonas aeruginosa [2] is “inactive”. Further, the minimal inhibitory concentration (MIC) (as a rule, the lowest concentration found to suppress growth) stood at 32 µg/mL (≈ 81.6 µM) in the test on Bacillus subtilis [4] and 16 µg/mL (≈ 40.8 µM) with Staphylococcus aureus [5]. Besides, in the test on Escherichia coli, the “diameter of the inhibition zone (DIZ)” value is “inactive”.
With `COc1ccc(-c2nn(-c3ccccc3)cc2/C=C2\SC(=O)NC2=O)cc1`, the zone of inhibition at 4000 µg/mL in the test on Staphylococcus aureus [1] is 13.6 mm; in the test on Bacillus subtilis [3], 14.3 mm. Further, the inhibition of growth at 4000 µg/mL in the test with Aspergillus flavus amounted to 57.7%; in the test with Aspergillus niger, 60%. Moreover, in the test with Pseudomonas aeruginosa [2], the DIZ result was “inactive”. The MIC with Bacillus subtilis [4] and in the test on Staphylococcus aureus [5] was 128 µg/mL (≈ 339 µM) throughout. For the same molecule, the “diameter of the inhibition zone (DIZ)” value with Escherichia coli was “inactive”.
Regarding `O=C1NC(=O)/C(=C/c2cn(-c3ccccc3)nc2-c2ccc(O)cc2)S1`, the values for the zone of inhibition at 4000 µg/mL in the test with Staphylococcus aureus [1] and with Bacillus subtilis [3] were 15 mm and 14.6 mm, respectively. The figures for the inhibition of growth at 4000 µg/mL in the test with Aspergillus flavus and in the test on Aspergillus niger were 54.4% and 55.5%, respectively. Moreover, the DIZ entry in the test on Pseudomonas aeruginosa [2] is “inactive”. The MIC against Bacillus subtilis [4] and in the test with Staphylococcus aureus [5] was 128 µg/mL (≈ 352 µM) in each case. The “diameter of the inhibition zone (DIZ)” value in the test with Escherichia coli is “inactive”.
Take `Cc1ccc(-c2nn(-c3ccccc3)cc2/C=C2\SC(=O)NC2=O)cc1`: the figures for the zone of inhibition at 4000 µg/mL in the test on Staphylococcus aureus [1] and with Bacillus subtilis [3] were 16.3 mm and 15.6 mm, respectively. The inhibition of growth at 4000 µg/mL with Aspergillus flavus worked out at 65.5%; in the test on Aspergillus niger, 68.8%. In addition, in the test with Pseudomonas aeruginosa [2], the DIZ result is “inactive”. The MIC in the test on Bacillus subtilis [4] and with Staphylococcus aureus [5] was 128 µg/mL (≈ 354 µM) throughout. For the same molecule, the “diameter of the inhibition zone (DIZ)” value in the test on Escherichia coli was “inactive”.
Regarding `OC(Cn1cncn1)(Cn1cncn1)c1ccc(F)cc1F` [FLUCONAZOLE], the inhibition of growth at 4000 µg/mL came to 77.7% in the test on Aspergillus flavus and 81.1% with Aspergillus niger.
With `O=C1NC(=O)/C(=C/c2cn(-c3ccccc3)nc2-c2ccccc2)S1`, the zone of inhibition at 4000 µg/mL in the test on Staphylococcus aureus [1] was determined as 20.3 mm; in the test with Bacillus subtilis [3], 16 mm. Also, the values for the inhibition of growth at 4000 µg/mL with Aspergillus flavus and in the test with Aspergillus niger were 60% and 62.5%, respectively. For the same molecule, in the test on Pseudomonas aeruginosa [2], the DIZ result was “inactive”. The MIC in the test on Bacillus subtilis [4] amounted to 128 µg/mL (≈ 368 µM); with Staphylococcus aureus [5], 32 µg/mL (≈ 92.1 µM). Moreover, in the test with Escherichia coli, the “diameter of the inhibition zone (DIZ)” value is “inactive”.
For the molecule `O=C1NC(=O)/C(=C/c2cn(-c3ccccc3)nc2-c2ccc(Br)cc2)S1`, the zone of inhibition at 4000 µg/mL was 18.6 mm in the test with Staphylococcus aureus [1] and 21.6 mm in the test with Bacillus subtilis [3]. In addition, the values for the inhibition of growth at 4000 µg/mL in the test with Aspergillus flavus and with Aspergillus niger were 62.5% and 61.1%, respectively. For the same molecule, the DIZ result in the test on Pseudomonas aeruginosa [2] was “inactive”. For the same molecule, the MIC was determined as 32 µg/mL (≈ 75.1 µM) in the test on Bacillus subtilis [4] and 64 µg/mL (≈ 150 µM) in the test on Staphylococcus aureus [5]. Moreover, in the test with Escherichia coli, the “diameter of the inhibition zone (DIZ)” value was “inactive”.
